Test results reported in US8951529B2, “Methods of using small compounds to enhance myeloid derived suppressor cell function for treating autoimmune diseases” (Icahn School of Medicine at Mount Sinai, priority 2009, dated 2015).

What was measured:
[1] = tested on: MDSCs; assay: Foxp3 RT-PCR of MDSC-activated T regulatory cells with MAP kinase activator or inhibitors; assay type: cell-based, mouse; details: FIG. 13B
Protocol: The expression of Foxp3 and actin (as internal control) was determined by RT-PCR in MDSC-activated T regulatory cells in the presence of p38 MAP kinase activator, anisomycin, p38 MAP kinase inhibitor, SB, and Erk inhibitor, PD (FIG. 13B).

[2] = tested on: Gr-1+/CD115+ MDSCs; assay: HA-TCR T-cell proliferation with MDSCs and MAP kinase activator or inhibitors; assay type: cell-based, mouse; details: HA peptide, three days, viable T cell count, FIG. 13A
Protocol: To determine whether MAP kinase is involved in MDSC-mediated T cell suppression and Treg activation, monocytic MDSCs (Gr-1+/CD115+) were purified from spleen of tumor bearing mice and the suppressive function was evaluated. Purified T cells from HA-TCR transgenic T cells were cultured in the presence or absence of irradiated purified Gr-1+/CD115+ MDSCs from tumor-bearing mice, irradiated splenocytes from naïve mice as antigen presenting cells, anisomycin, various inhibitors, and HA peptide (0.5 μg/m1). Three days later, T cell proliferation was assessed by counting viable (trypan blue negative) total T cell number. Proliferation percentages were calculated by the number of experimental group divided by the number of T cell without MDSC, anisomycin or inhibitors (SB, PD). *p<0.05 by ANOVA t-test (FIG. 13A).

[3] = tested on: DSS-induced colitis; assay: DSS-induced colitis in vivo model; set-up: species or system C57BL/6 mice; details: day 11, in comparison with naive healthy mice, FIG. 5C
Excerpt: In certain aspects, the invention is related to the treatment of IBDs. Mouse models of IBD are well known in the art, and may be used to model human IBDs. For example, dextran sodium sulfate (DSS) may be administered to mice to induce IBD. In this model, mice are fed with water containing 3.5% DSS from day 0 to day 11. Following treatment, mice develop colitis. The severity of colitis is quantified (assigned a clinical score) by assessing stool consistency, bleeding, and weight loss, which ranges from 0 (healthy) to 4 (maximal severity). Histologically, DSS produces submucosal erosions, ulceration, inflammatory cell infiltration and crypt abscess as well as epithelioglandular hyperplasia. […] [Kawada et al., 2007, World J. Gastroenterol. 13: 5581-5593; Okayasu et al., 1990, Gastroenterology 98:694-702]
For adoptive transfer of MDSCs, 5×10^6 purified MDSCs suspended in PBS were administered by intravenous infusion at day 0 and day 7.
Mice were left untreated or treated with sorted MDSCs (5×10^6 cells/mouse) alone or in combination with GA and/or SP600125 (Sigma-Aldrich), on the day of disease induction. […] The severity of colitis was quantitated as a clinical score by assessing stool consistency, bleeding, and weight loss, which ranges from 0 (healthy) to 4 (maximal severity). The clinical score (weight loss, stool consistency, and bleeding) of treated mice was assessed in a double-blind fashion.
On day 11 post-IBD induction, colon tissues from treated mice were removed, fixed in 3% formaldehyde, sectioned, and stained with H&E staining to determine the pathology score of colitis. To reflect the general condition of the mice, a disease activity index (DAI) was determined by an investigator blinded to the protocol by scoring the extent of body weight loss, stool guaiac positivity or gross bleeding, and stool consistency according to the method described in Murthy et al. (1993) “Treatment of Dextran Sulfate Sodium-Induced Murine Colitis by Intracolonic Cyclosporin,” Digest. […] Stool consistency and the degree of blood in stool were evaluated on the day when animals were killed. […]

Row | SMILES | Treg induction by MDSCs as assessed by Foxp3 expression by RT-PCR [1] | MDSC suppression of HA-TCR T-cell proliferation [2] | decrease in colonic length [3]
1 | COc1cccc(-c2cc(=O)c3ccccc3o2)c1N [PD98059, 2-(2-Amino-3-methoxyphenyl)-4H-1-benzopyran-4-one] | not significantly different | not reverted or enhanced | 
2 | C[S+]([O-])c1ccc(-c2nc(-c3ccc(F)cc3)c(-c3ccncc3)[nH]2)cc1 (stereo not shown) [SB203580, 4-(4-Fluorophenyl)-2-(4-methylsulfinylphenyl)-5-(4-pyridyl)-1H-imidazole] | not significantly different | not reverted or enhanced | 
3 | Oc1c2ccccc2c2c3c(cccc13)N=N2 [SP600125, 1,9-Pyrazoloanthrone] |  |  | 51.6%
4 | COc1ccc(C[C@H]2NC[C@H](O)[C@H]2OC(C)=O)cc1 [anisomycin] | decreased Treg induction | reverted the suppressive activity | 
